Entries after “also recorded” stand apart in the source; their conditions may differ.
Test system: C. elegans
Assay: Antimycin A treatment, adult lifespan analysis
Format: in vivo
Procedure: During a systematic screen of a C. elegans Chromosome I RNAi library it was discovered that animals grown on bacteria expressing atp-3 double-stranded RNA lived much longer than normal (Fraser et al., Nature 408:325 (2000)). Lifespan analysis was conducted at 25° C. as described previously (Kenyon et al., Nature 366:461 (1993)). The pre-fertile period of adulthood was used as t=0 for lifespan analysis. Strains were grown at 20° C. for at least two generations before use in lifespan analysis. Statview 5.0.1 (SAS) software was used for statistical analysis and to determine means and percentiles. In all cases, p values were calculated using the logrank (Mantel-Cox) method.
OP-50 bacteria were spread onto NG plates and allowed to grow for two days at room temperature. 50 μl of 0.01 M Antimycin A (Sigma) dissolved in 100% ethanol was dropped onto bacterial lawn and allowed to dry overnight in a fume hood at room temperature. […] Animals were transferred to new Antimycin A plates every 4 days. Control worms (ethanol only) were handled in the same manner) (Table 1).

[1] = fer-15(b26), fem-1(hc17) + 0.1 μM Antimycin A, 25° C.

Question: With Antimycin A as the substance, how does the “effect on lifespan (words)” value (C. elegans, from hatching through adulthood or regimen not stated, listed as antimycin) read?
Answer: The value was “substantially increased lifespan; also recorded: increases lifespan”.

Question: What about the “effect on lifespan (words)” value (C. elegans, from hatching through adulthood or regimen not stated, listed as antimycin A) of the same substance?
Answer: The value was “increased lifespan”.

Question: What about the “effect on lifespan (words)” value (administration to adult worms) of the same substance?
Answer: Its value is “increased lifespan”.

Question: What about the mean lifespan (animals grown in the presence of 0.1 micromolar antimycin in ethanol) of the same substance?
Answer: The mean lifespan was 21 days.

Question: What about the “75th percentile adult lifespan” value [1] of the same substance?
Answer: The value was 25 days.

Question: And the “Mean ± s.e.m. adult lifespan” value [1]?
Answer: The value was 20.4 ± 0.7 days.

Reference: patent publication US7794957B2, “Eukaryotic genes involved in adult lifespan regulation” (priority 2001, dated 2010)
